Data: patent publication US4435385A, “N-Acyl-polypeptides and processes for the production thereof” (Sandoz Ltd., priority 1981, dated 1984)

System: gastric secretion
Experiment: TEST II: pentagastrin-stimulated gastric secretion in pylorus-ligated rats
Type: in vivo, rat
Settings: male rats, i.m., 100 μg/kg pentagastrin s.c., 30 mins; dose for 50% inhibition vs untreated controls
Protocol: Male rats (220-280 g) are kept in the laboratory in individual cages for several days (14 hours light/day) with 48 hours fasting (but free access to water) immediately prior to the experiment. At the start of the experiment the pylorus is ligated under ether anaesthesia and 100 μg/kg pentagastrin are injected s.c. to stimulate gastric secretion. The test compounds are injected simultaneously i.m. 30 mins. later the animals are sacrificed, the volume of gastric juice measured and the acid concentration estimated (titration with thymol blue). The acid output is calculated and the percent inhibition estimated in relation to untreated controls.

`C[C@H](N)C(=O)NCC(=O)N[C@H]1CSSC[C@@H](C(=O)O)NC(=O)[C@H](CO)NC(=O)[C@H]([C@@H](C)O)NC(=O)[C@H](Cc2ccccc2)NC(=O)[C@H]([C@@H](C)O)NC(=O)[C@H](CCCCN)NC(=O)[C@H](Cc2c[nH]c3ccccc23)NC(=O)[C@H](Cc2ccccc2)NC(=O)[C@H](Cc2ccccc2)NC(=O)[C@H](CC(N)=O)NC(=O)[C@H](CCCCN)NC1=O` [somatostatin] was tested, and the “ID50 in TEST II for acid concentration” value was 0.035 mg/kg.
